Experimental data from PubChem BioAssay (NCI).
“And” between values parts separate entries of the source, which are not always exact repeats. Identical values can stand only once.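 Briefly, cells in 96-well plates were exposed to five compound concentrations for 48 h, and endpoints were estimated by linear interpolation. At the GI50, growth is halved. The concentration for full growth arrest is given as TGI.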

Assays:
Assay in all cases: inhibition of tumour cell growth, NCI panel, 48 h
HCT-116 colon = tested on: HCT-116 colon
NCI-H522 lung = tested on: NCI-H522 lung
PC-3 prostate = tested on: PC-3 prostate
MALME-3M melanoma = tested on: MALME-3M melanoma
NCI-H226 lung = tested on: NCI-H226 lung
MCF7 breast = tested on: MCF7 breast
HOP-62 NSCLC = tested on: HOP-62 NSCLC
M14 melanoma = tested on: M14 melanoma
U251 CNS = tested on: U251 CNS
A498 renal = tested on: A498 renal

Compound	GI50 (HCT-116 colon) [µM]	TGI (HCT-116 colon)	TGI (NCI-H522 lung) [µM]	TGI (PC-3 prostate)	TGI (MALME-3M melanoma)	TGI (NCI-H226 lung)	TGI (MCF7 breast)	GI50 (HOP-62 NSCLC) [µM]	TGI (HOP-62 NSCLC)	TGI (M14 melanoma) [µM]	TGI (U251 CNS)	TGI (A498 renal) [µM]	GI50 (NCI-H522 lung) [µM]	GI50 (PC-3 prostate) [µM]	GI50 (MALME-3M melanoma) [µM]	GI50 (NCI-H226 lung) [µM]	GI50 (MCF7 breast) [µM]	GI50 (M14 melanoma) [µM]	GI50 (U251 CNS) [µM]	GI50 (A498 renal) [µM]
C[C@]12CC[C@@H]3c4cc(I)c(O)cc4CC[C@H]3[C@@H]1CC[C@@H]2O	5.01	16.5 µM	17.8	> 56.4 µM	28.3 µM	33.4 µM	21.1 µM	4.22	17.3 µM	17.4	16.8 µM	24.3								
COc1ccc(-c2cc(-c3ccccc3)[nH]c(=S)c2C#N)cc1		> 100 µM	> 100	> 100 µM	> 100 µM	96.2 µM	> 100 µM		24.2 µM	94	54.4 µM	60.2								
O=c1[nH]nc(Cc2ccccc2)n1/N=C/c1ccncc1		> 100 µM	> 100	> 100 µM	> 100 µM	> 100 µM	> 100 µM		> 100 µM	> 100	> 100 µM	> 100								
CO[C@]12C[C@H](CNC(=O)c3ccc[nH]3)O[C@H]1NC(=O)N2		> 100 µM	> 100	> 100 µM	> 100 µM	> 100 µM	> 100 µM		> 100 µM	> 100	> 100 µM	> 100								
COC(=O)/C(C#N)=C(/NCCN)Nc1ccccc1		> 100 µM	> 100	> 100 µM	> 100 µM	> 100 µM	> 100 µM		> 100 µM	> 100	> 100 µM	> 100								
Cc1ccc(/C=C2\Cc3c(C)cc(C)cc3C2=O)c(C(=O)O)c1		> 100 µM	> 100	> 100 µM	> 100 µM	71.4 µM	> 100 µM		> 100 µM	> 100	> 100 µM	84.1								
CN(C)CC1CCC(CN(C)C)C1=O (centres undefined)		5.23 µM	0.359	4.58 µM	3.67 µM	38.8 µM	1.8 µM		> 68 µM	7.38	50.2 µM	> 58.9								
N#Cc1nc(NC(=O)c2ccccc2C(=O)O)c(C#N)[nH]1		> 100 µM	> 100	> 100 µM	> 100 µM	> 100 µM	> 100 µM		> 100 µM	> 100	> 100 µM	> 100								
N#Cc1c(-c2ccccc2)cc(-c2ccc(Cl)cc2)[nH]c1=S		> 100 µM	70.5	> 100 µM	> 100 µM	80.5 µM	53.1 µM		> 100 µM	> 100	48.5 µM	63.5								
COc1ccc(CN2C3CC2CN(c2ccc(-c4cc(OCC(C)(C)O)cn5ncc(C#N)c45)cn2)C3)cn1	8.06	> 100 µM	> 100	> 100 µM	> 100 µM	> 100 µM	> 100 µM	4.72	47.6 µM	> 100	> 100 µM	3.7	17.5	16.3	> 100	1.66	6.06	24.2	4.55	0.51
COc1cc(/C=C/C=C2\CC/C(=C\C=C\c3ccc(O)c(OC)c3)C2=O)ccc1O		> 100 µM	25.9	> 100 µM	> 100 µM	> 100 µM	> 100 µM		> 100 µM	> 100	> 100 µM	> 100								
C#CCN(Cc1ccc2nc(OC)c(OC)nc2c1)c1cc(OC)c(OC)c(OC)c1		> 68.8 µM	36.1	> 91.5 µM	83.8 µM	60.6 µM	> 66 µM		> 67.9 µM	71.2	> 80.2 µM	> 84.5								
CCOC(=O)C1CCC(=O)N1C(=O)c1ccccc1 (centres undefined)		> 100 µM	> 100	> 100 µM	> 100 µM	> 100 µM	> 100 µM		> 100 µM	> 100	> 100 µM	> 100								
Oc1[nH]c2ccccc2c1N=NC(=S)Nc1ccc(Cl)cc1		> 100 µM	> 100	> 100 µM	54.7 µM	86.4 µM	> 100 µM		> 100 µM	45.2	> 100 µM	63								
C[C@H]1SC(c2ccc(Cl)cc2Cl)N(NC(=O)c2ccncc2)C1=O (some centres undefined)		60.4 µM	60.5	29.7 µM	> 100 µM	76.6 µM	> 100 µM		94.3 µM	69.9	> 100 µM	78.4								
CC(=O)c1ccc2c(c1)CC1(C2)Cc2ccccc2C1=O (centres undefined)		> 100 µM	99.6	> 100 µM	> 100 µM	> 100 µM	> 100 µM		> 100 µM	> 100	> 100 µM	> 100								
COc1ccc(COCC[C@H](C)OC2OC(CO[Si](C)(C)C(C)(C)C)C(OC(=O)CCCN=[N+]=[N-])C(OC(=O)CCCN=[N+]=[N-])C2OC(=O)CCCN=[N+]=[N-])cc1 (some centres undefined)		> 100 µM	> 100	> 100 µM	> 100 µM	89.2 µM	> 100 µM		> 100 µM	> 100	> 100 µM	> 100								
COc1ccc(NC(=S)NC(=O)c2ccc3c(c2)Sc2ccccc2O3)c([N+](=O)[O-])c1		> 100 µM	35.3	> 100 µM	35.7 µM	> 100 µM	> 100 µM		> 100 µM	> 100	60.6 µM	38.2								
CC(C)OC(=O)OCSc1ccccc1N=Cc1cccc([N+](=O)[O-])c1		> 10 µM	> 10	> 10 µM	> 10 µM	> 10 µM	> 10 µM		> 10 µM	> 10	> 10 µM	> 10								
CCOC(=O)/C=C(\C(=O)OCC)n1ccc(=O)n(Cc2cn(COCCOC(C)=O)nn2)c1=O		33 µM	8.34	41.5 µM	30.6 µM	29.7 µM	35.1 µM		> 100 µM	> 100	36.7 µM	> 69.5								
C=C(CN(C)C)C(=O)c1ccccc1[N+](=O)[O-]	7.18	31.6 µM and 38.3 µM	7.74	31.3 µM and 13.5 µM	20.2 µM and 21.1 µM	> 58.3 µM and 47 µM	31.1 µM and 24.5 µM	17.7	> 100 µM and 36.6 µM	29.6	54.5 µM and 31.8 µM	> 92			4.74	20.9	5.02	6.42	17.8	
S=c1cc(-c2ccc3c(c2)OCO3)s[nH]1		> 100 µM	54.6	> 100 µM	> 100 µM	> 100 µM	> 100 µM		> 100 µM	> 100	> 100 µM	> 100								
CCOC(=O)c1cn2c(n1)sc1cc(Cl)cc(Cl)c12		> 100 µM	> 100	> 100 µM	> 100 µM	> 100 µM	> 100 µM		> 100 µM	> 100	> 100 µM	> 100								
CNC(=O)CCCNC(=O)CCCC(=O)N(C)C		> 100 µM	> 100	> 100 µM	> 100 µM	> 100 µM	> 100 µM		> 100 µM	> 100	> 100 µM	> 100								
Cc1ccc(C2=CC(=O)/C(=C\C(=O)c3ccc(Cl)cc3)O2)cc1		27.8 µM	4.99	12.2 µM	32.7 µM	40 µM	25.6 µM		> 100 µM	39.3	32 µM	71.8								
NC(=O)N/N=C1\CC2C3CC4C2C4C13 (centres undefined)		> 100 µM	> 100	> 100 µM	> 100 µM	> 100 µM	> 100 µM		> 100 µM	> 100	> 100 µM	> 100								
C[n+]1c(-c2ccc(/C=C/C=N\NC(=O)c3ccc(C(=O)N/N=C\C=C\c4ccc(-c5cn6ccccc6[n+]5C)cc4)cc3)cc2)cn2ccccc21		> 100 µM	> 100	> 100 µM	> 100 µM	> 100 µM	> 100 µM		> 100 µM	> 100	> 100 µM	> 100								
C\C(=N/N=C1/C(=C\N(C)C)C(=O)NC(=O)N1C)c1ccc(Cl)cc1		> 100 µM	> 100	> 100 µM	> 100 µM	> 100 µM	> 100 µM		> 100 µM	> 100	> 100 µM	> 100								
COc1cc2c(cc1Cc1c(F)cccc1Cl)nc(-c1c(F)cccc1Cl)n2Cc1c(F)cccc1Cl		> 100 µM	59	> 100 µM	79.9 µM	> 100 µM	> 100 µM		75.7 µM	> 100	> 100 µM	84								
CC(C)(C)c1cc(C(=O)/C=C/c2ccc3c(c2)OCO3)cc(C(C)(C)C)c1O		24.5 µM	66	21.8 µM	> 53.4 µM	> 80.6 µM	> 100 µM		> 100 µM	65.3	19.3 µM	> 56.4								
